For this experiment, the target named is T1, PKD2L1 (polycystic kidney disease 2-like 1 channel) (Mus musculus, UniProt A2A259).
T1 construct: mouse PKD2L1 in pCINeo/IRES-GFP, transiently expressed in HEK293T cells; no PKD1L3 co-expression mentioned; homotetramer (known biology)
T1 sequence (A2A259 1-760): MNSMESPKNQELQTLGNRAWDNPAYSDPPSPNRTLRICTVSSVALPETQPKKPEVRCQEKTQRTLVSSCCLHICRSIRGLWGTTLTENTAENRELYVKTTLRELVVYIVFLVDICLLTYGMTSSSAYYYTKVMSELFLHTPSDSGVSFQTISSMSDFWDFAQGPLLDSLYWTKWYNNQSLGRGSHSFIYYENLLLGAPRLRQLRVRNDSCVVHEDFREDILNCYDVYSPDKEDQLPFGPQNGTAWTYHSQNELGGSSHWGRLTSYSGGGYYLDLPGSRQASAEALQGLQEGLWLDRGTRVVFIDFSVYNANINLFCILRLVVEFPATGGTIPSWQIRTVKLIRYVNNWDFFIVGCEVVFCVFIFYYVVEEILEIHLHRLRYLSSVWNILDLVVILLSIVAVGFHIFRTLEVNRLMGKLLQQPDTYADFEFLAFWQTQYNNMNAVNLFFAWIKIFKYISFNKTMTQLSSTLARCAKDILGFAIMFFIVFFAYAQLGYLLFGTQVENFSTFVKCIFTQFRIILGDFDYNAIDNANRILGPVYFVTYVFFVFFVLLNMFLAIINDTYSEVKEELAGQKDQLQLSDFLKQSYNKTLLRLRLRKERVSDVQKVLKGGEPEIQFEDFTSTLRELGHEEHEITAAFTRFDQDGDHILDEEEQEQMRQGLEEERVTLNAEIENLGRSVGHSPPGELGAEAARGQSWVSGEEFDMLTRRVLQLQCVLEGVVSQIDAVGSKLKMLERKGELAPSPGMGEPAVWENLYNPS
Put plainly: whole-cell patch clamp, channel activity (NPo) at -60 mV. In kind it is cell-based. For orientation: In patch-clamp work, channel activity is measured electrically.

Molecules are shown by their SMILES.

The term EC50 denotes the concentration at which the effect is half-maximal. Lower therefore signals higher potency in that assay. `C=C[C@H]1C[N@@]2CC[C@H]1C[C@H]2[C@H](O)c1ccnc2ccc(OC)cc12` [quinine] had an EC50 of 33 µM.

The values above are taken from PMC10017821, “Polycystic kidney disease 2-like 1 channel contributes to the bitter aftertaste perception of quinine” (Scientific Reports, 2023).
